The values that follow come from US20010007679A1, “(S,R) FORMOTEROL METHODS AND COMPOSITIONS” (priority 1999, published 2001).

Some results are limits rather than exact numbers.

Experiment [1] concerns the target human β2-adrenergic receptor (Homo sapiens, UniProt P07550). In words: Second series: binding competition, human β2. The following applies: for IC50: IC50 (nM) β2, Second series (human); for β2 Selectivity (β1/β2): Second series (human). On the procedure:
(R,S)- and (S,R)-desformoterol were screened, in duplicate at three concentrations (10^−9, 10^−7, 10^−5 M), for binding to human β1 and β2-adrenergic receptors. Compounds that inhibited specific binding ≧50% were then tested further at ten concentrations in duplicate in order to obtain full competition curves. Reference compounds were simultaneously tested at eight concentrations.

Experiment [2] addresses human β1-adrenergic receptor (Homo sapiens, UniProt P08588). In words: Second series: binding competition, human β1. To be noted: for IC50: IC50 (nM) β1, Second series (human).
The subject of another experiment is BEAS-2B cells. The experiment is described as follows: Intrinsic activity: cAMP production by radioimmunoassay. In kind it is cell-based. The following applies: 100-times the Kd concentration, relative to isoproterenol (set to 1.0). On the procedure: The assessment of intrinsic activity was evaluated in BEAS-2B cells grown to confluence. […] Samples were assayed for cAMP by radioimmunoassay.

One may read the IC50 as the concentration at which inhibition is half-maximal. Low values mean greater potency in that assay, high ones weaker potency in that assay. As usually defined, the inhibition is the drop in the measured response relative to a control, in per cent.

Sequence of human β1-adrenergic receptor (P08588 whole entry): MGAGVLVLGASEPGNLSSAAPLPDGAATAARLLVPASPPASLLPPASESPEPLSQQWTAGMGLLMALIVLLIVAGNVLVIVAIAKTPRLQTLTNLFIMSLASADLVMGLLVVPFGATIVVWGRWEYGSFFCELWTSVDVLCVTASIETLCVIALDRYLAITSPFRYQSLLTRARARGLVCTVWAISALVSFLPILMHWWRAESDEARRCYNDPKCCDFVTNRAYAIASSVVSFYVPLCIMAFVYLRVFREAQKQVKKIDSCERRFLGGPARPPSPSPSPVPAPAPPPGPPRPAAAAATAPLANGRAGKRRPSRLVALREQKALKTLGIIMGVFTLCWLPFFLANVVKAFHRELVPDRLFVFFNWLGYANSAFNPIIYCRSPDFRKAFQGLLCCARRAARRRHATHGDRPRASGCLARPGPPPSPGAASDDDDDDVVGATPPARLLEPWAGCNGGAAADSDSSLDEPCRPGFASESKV
Sequence of human β2-adrenergic receptor (P07550 whole entry): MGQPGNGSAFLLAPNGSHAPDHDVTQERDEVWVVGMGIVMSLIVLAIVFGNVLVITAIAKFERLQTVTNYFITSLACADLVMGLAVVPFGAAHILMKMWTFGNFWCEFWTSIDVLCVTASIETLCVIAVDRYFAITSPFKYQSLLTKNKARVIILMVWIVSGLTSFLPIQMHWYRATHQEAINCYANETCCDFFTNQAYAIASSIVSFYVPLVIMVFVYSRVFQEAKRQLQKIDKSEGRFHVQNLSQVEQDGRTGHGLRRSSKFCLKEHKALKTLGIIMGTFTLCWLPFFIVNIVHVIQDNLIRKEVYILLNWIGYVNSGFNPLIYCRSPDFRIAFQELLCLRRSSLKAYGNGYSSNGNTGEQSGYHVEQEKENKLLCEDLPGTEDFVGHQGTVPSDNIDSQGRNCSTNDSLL

In the case of `COc1ccc(CC(C)NCC(O)c2ccc(O)c(N)c2)cc1` (single isomer, unassigned) [(R,R)-Desformoterol, 3-Amino-4-hydroxy-α-[[[2-(4-methoxyphenyl)-1-methylethyl]amino]methyl]-benzenemethanol], in experiment [1], the IC50 is 35.6 nM and the “β2 Selectivity (β1/β2)” value is 89. Besides, in experiment [2], the half-maximal inhibitory concentration (IC50) was 3180 nM.

As to `COc1ccc(CC(C)NCC(O)c2ccc(O)c(N)c2)cc1` (single isomer, unassigned) [(R,S)-Desformoterol, 3-Amino-4-hydroxy-α-[[[2-(4-methoxyphenyl)-1-methylethyl]amino]methyl]-benzenemethanol], in experiment [1], the IC50 was determined as 3140 nM and the “β2 Selectivity (β1/β2)” value amounted to 0.6. The same compound had an IC50 in experiment [2] of 1790 nM.

Consider `COc1ccc(CC(C)NCC(O)c2ccc(O)c(N)c2)cc1` (single isomer, unassigned) [(S,S)-Desformoterol, 3-Amino-4-hydroxy-α-[[[2-(4-methoxyphenyl)-1-methylethyl]amino]methyl]-benzenemethanol], for which the values for the IC50 in experiment [1] and in experiment [2] were > 10000 nM and 64700 nM, respectively.

With `CC(C)(C)NC[C@H](O)c1ccc(O)c(CO)c1` [(R)-Albuterol], in the experiment with BEAS-2B cells, the “Intrinsic Activity (cAMP)” value is listed as 0.44.

For the compound `COc1ccc(CC(C)NCC(O)c2ccc(O)c(N)c2)cc1` [(R,R/S,S)-Desformoterol, 3-Amino-4-hydroxy-α-[[[2-(4-methoxyphenyl)-1-methylethyl]amino]methyl]-benzenemethanol], the IC50 in experiment [1] was 81.3 nM; in experiment [2] it was 5140 nM. Moreover, the “β2 Selectivity (β1/β2)” value in experiment [1] was 63.

As to `COc1ccc(C[C@@H](C)NCC(O)c2ccc(O)c(N)c2)cc1` (stereo partly drawn) [(S,R)-Desformoterol, 3-Amino-4-hydroxy-α-[[[2-(4-methoxyphenyl)-1-methylethyl]amino]methyl]-benzenemethanol], in experiment [1], the IC50 amounted to 1830 nM. In addition, the inhibition at 10 µM in experiment [2] (read-out: inhibition of specific binding at β1) worked out at 22%.

On to `CC(C)NCC(O)c1ccc(O)c(O)c1` (stereo not drawn) [Isoproterenol], for which, in the experiment with BEAS-2B cells, the “Intrinsic Activity (cAMP)” value is 1.00.
